Test results from patent US20180055835A1, “Method for Treating And Preventing Protozoal Infections” (priority 2016, published 2018).

Experiments:
Py13XL malaria [1] = assay: Anti-malaria effect (treatment) with naltrexone in infected mice; assay type: in vivo, BABL/C mice; conditions: for mice died: on 5 d
Procedure: (§1) • 45 BABL/C mice, six weeks old, were divided into 5 groups, 9 mice for each group. […] The survival was recorded from the third day of infection and infected rate of malaria are recorded by taking tail vein blood, smearing glass slide, Gimsa staining and checking parasitemia under microscope. • Finally changes of immune parameters in peripheral blood were measured by flow cytometry technology and made comparison to control.

[2] = system: immune cells in peripheral blood; assay: Changes of immune parameters in peripheral blood post treatment, flow cytometry; assay type: in vivo, BABL/C mice; conditions: treatment group after low dose naltrexone
Procedure: as §1

[3] = system: Py13XL malaria (P. falciparum); assay: Prevention of malaria by naltrexone in mice (dosing 7 days before infection); assay type: in vivo, BABL/C mice; conditions: for more mice died: on 6 d
Procedure: (§2) • 45 BABL/C mice, six weeks old, were divided into 5 groups, 9 mice for each group. […] The survival was recorded from the first day of infection and infected rate of malaria are recorded from the third day of infection by taking tail vein blood, smearing glass slide, Gimsa staining and checking parasitemia under microscope.

Py13XL malaria [4] = assay: as above; assay type: in vivo, BABL/C mice; conditions: oral, 7 days before infection, on 5 d, 9 mice per group
Procedure: as §2

malaria = assay: Case reports: relapse of malaria in patients given LDN; assay type: in vivo, human
Procedure: • A patient with HIV suffering from malaria has had relapses at least twice a year for the last five years.
• A person has suffered on and off from malaria for 40 years. The patient was administered 4.5 mg of LDN per day, as an adjunct treatment with chemotherapy.

[5] = molecular target: Leishmania donovani topoisomerase I (LdTOPILS); conditions: inhibitor of LdTOPILS; Roy A., et al., Biochemical Journal 2007; cited from earlier work
[6] = 0.5 mg naltrexone treating group, oral daily 15 days from 2 d post infection, 9 mice per group
[7] = 1 mg naltrexone treating group, oral daily 15 days from 2 d post infection, 9 mice per group
[8] = 0.5 mg naltrexone per mouse, oral, 7 days before infection, 9 mice per group
[9] = 1 mg naltrexone per mouse, oral, 7 days before infection, 9 mice per group

O=C1CC[C@@]2(O)[C@H]3Cc4ccc(O)c5c4[C@@]2(CCN3CC2CC2)[C@H]1O5 [naltrexone]
mice still alive for end point (Py13XL malaria [1]; [6]): 3 mice | mice died (Py13XL malaria [1]; [6]): 2 mice | more mice died (Py13XL malaria [1]; 0.5 mg naltrexone treating group, oral daily 15 days from 2 d post infection, on 6 d, 9 mice per group): 4 mice | treatment effect compared between dose groups (Py13XL malaria [1]; 1 mg naltrexone group versus 0.5 mg and 2 mg): best treatment | mice still alive till end point (Py13XL malaria [1]; [7]): 6 mice | mice died (Py13XL malaria [1]; [7]): 0 mice | more mice died (Py13XL malaria [1]; 1 mg naltrexone treating group, oral daily 15 days from 2 d post infection, on 6 d, 9 mice per group): 2 mice | more mice died (Py13XL malaria [1]; 1 mg naltrexone treating group, oral daily 15 days from 2 d post infection, on 9 d, 9 mice per group): 1 mice | parasitemia (Py13XL malaria [1]; 1 mg naltrexone treating group, surviving mice, on 20 d): parasitemia disappeared | mice died (Py13XL malaria [1]; 2 mg naltrexone group, oral daily from 2 d post infection, 9 mice per group): 5 mice | more mice died (Py13XL malaria [1]; 2 mg naltrexone group, oral daily from 2 d post infection, on 6 d, 9 mice per group): 4 mice | toxicity to animals (Py13XL malaria [1]; 2 mg naltrexone, infected mice): shows toxicity | Total nucleated cell ([2]; control 1.30 ± 0.13, P < 0.01): 4.21 ± 0.75 | Treg cell ([2]; control 4.22 ± 0.64, P < 0.01): 2.15 ± 0.48 | NK cell ([2]; control 7.58 ± 1.59, P < 0.01): 20.39 ± 4.42 | Macrophage ([2]; control 9.18 ± 0.26, P < 0.01): 12.1 ± 0.56 | CD4+ T cell ([2]; control 22.65 ± 3.48, P < 0.01): 34.81 ± 5.78 | CD8+ T cell ([2]; control 35.33 ± 3.62, P < 0.01): 59.63 ± 3.78 | CD3+ T cell ([2]; control 48.90 ± 4.06, P < 0.01): 67.04 ± 4.20 | mice still alive at the end point [3, 8]: 1 mice | more mice died [3, 8]: 7 mice | protecting effect compared between dose groups ([3]; 1 mg naltrexone per mouse versus 0.5 mg and 2 mg): best protecting effect | survival rate ([3]; 1 mg naltrexone per mouse, oral, 7 days before infection): 33.3% | mice still alive till the end point [3, 9]: 3 mice | more mice died [3, 9]: 5 mice | parasitemia ([3]; 1 mg naltrexone per mouse, surviving mice, on 20 d): all infection parasitemia disappeared | more mice died ([3]; 2 mg naltrexone per mouse, oral, 7 days before infection, 9 mice per group): 5 mice | mice died (Py13XL malaria [4]; 0.5 mg naltrexone per mouse): 1 mice | mice died (Py13XL malaria [4]; 1 mg naltrexone per mouse): 1 mice | mice died (Py13XL malaria [4]; 2 mg naltrexone per mouse): 4 mice | time without relapse of malaria (malaria; patient with HIV, relapses at least twice a year before, 4.5 mg per day as adjunct treatment for HIV): 24 months | time without relapse of malaria (malaria; person, malaria on and off for 40 years, 4.5 mg per day, adjunct with chemotherapy): over 24 months

c1ccc2c(Cc3c[nH]c4ccccc34)c[nH]c2c1 [DIM]
IC50 [5]: 1200 nM
